{
  "source": "patent US20050118658A1",
  "about": "“Use of ERRalpha phosphorylation status as a breast cancer biomarker” (priority 2003, published 2005)",
  "key": {"[1]": {"test_system": "ER-stimulated ERE-regulated transcription in MCF-7 cells", "experiment": "Transient transfection dual-luciferase assay of ERE-regulated transcription in MCF-7 cells", "type": "cell-based, human", "conditions": "100 pM E2, 48 h, estrogen-free medium, ER-positive MCF-7 cells", "experimental": "(A) MCF-7 and (B) BT-474 cells were co-transfected in parallel with the ERE(5×)-regulated and TATA dual-luciferase reporter gene sets along with ERRα1, ERRα1L413A/L418A, GRIP1 (glucocorticoid receptor interacting protein 1, SRC2) or empty parental expression plasmids as indicated. Transfected cells were incubated for 48 h in estrogen-free medium supplemented with ethanol, the solvent for the ligands, 100 pM E2, or 100 pM E2 plus 100 nM fulvestrant (ICI 182,780, faslodex) prior to being harvested for dual-luciferase assays. The results shown here are means±standard deviations from data obtained in one representative experiment performed in triplicate.\nPlasmids pERE(5x)-ffLuc and pTATA-ffLuc, encoding firefly luciferase, and plasmid pTATA-srLuc, encoding renilla luciferase, were used as matched dual-luciferase reporter sets to assay ERE-regulated versus basal transcription along with an internal control. They were constructed by insertion via HindIII linkers of the nts −31 to +31 region of the herpes simplex virus thymidine kinase (HSV-TK) promoter into pGL3-Basic and phRG-B (Promega, Madison, Wis.), respectively. Plasmid pERE(5x)-ffLuc, containing five tandem copies of the consensus palindromic ERE, was then constructed by insertion into pTATA-fELuc of the oligodeoxynucleotides 5′-tcgag[…]gag[…]ctc[…] GACCTCTgcg[…]gcg[…]a-3′ (SEQ ID NO:1) and 5′-gatct[…]cgc[…]cgc[…] […]"}, "ERRα": {"test_system": "ERRα", "experiment": "Immunoblot analysis of ERRα expression in ERRα-transfected BT-474 cells", "type": "cell-based, human", "conditions": "BT-474 cells transfected with ERRα, 48 h; 20 μg/ml trastuzumab, 1 μM gefitinib, 20 μM U0126 or 20 μM LY294002", "experimental": "(§1) BT-474 cells were co-transfected in parallel with the ERE(5x)-regulated and TATA dual-luciferase reporter gene sets along with the indicated expression plasmids. […] In panel (B), the cells were incubated for 48 h in estrogen-free medium supplemented with dimethyl sulfoxide as the drug vehicle control, 20 μM U0126 (MEK inhibitor), or 20 μM LY294002 (PI3K inhibitor) as indicated. After incubation for 48 h, the cells were harvested for dual-luciferase assays. Data were analyzed as described in the legend to FIG. 2. (C) Immunoblot analysis of protein extracts (20 μg per sample) prepared from BT-474 cells treated as in panels A and B above for luciferase activity. The membrane was probed with antibodies that react specifically with ERRα. Reactive proteins were visualized by enhanced chemiluminescence and autoradiography. (D) Immunoblot analysis as in panel C above, only the membrane was probed with antibodies that react specifically with phosphorylated Akt (p-Akt), total Akt, phosphorylated MAPK (p-MAPK) or total MAPK.\n(§2) Proteins were extracted in Cell Lysis Buffer (Cell Signaling Technology, Beverly, Mass.) supplemented with Protease Inhibitor Cocktail Set III and Phosphatase Inhibitor Cocktail Set II (Calbiochem). Protein amounts were quantified with Coomassie Protein Assay Reagent (Pierce Biotechnology) with BSA as the standard. […] In FIG. 5D, the membrane was probed sequentially with p44/42 MAPK polyclonal antibody, phospho-specific p44/42 MAPK (Thr202/Tyr204) monoclonal antibody E10, Akt polyclonal antibody, and phospho-specific Akt (Ser473) polyclonal antibody (Cell Signaling Technology). Reacting material was detected using horseradish peroxidase-conjugated secondary antibodies (Jackson ImmunoResearch Laboratories, West Grove, Pa.) together with enhanced chemiluminescence (Amersham Pharmacia) and autoradiography."}, "[2]": {"test_system": "phosphorylated MAPK (p-MAPK)", "experiment": "Immunoblot analysis of phosphorylated versus total MAPK in BT-474 cells", "type": "cell-based, human", "conditions": "48 h, 20 μg/ml trastuzumab, 1 μM gefitinib, 20 μM U0126 or 20 μM LY294002", "experimental": "as §1, §2"}, "[3]": {"test_system": "phosphorylated Akt (p-Akt)", "experiment": "Immunoblot analysis of phosphorylated versus total Akt in BT-474 cells", "type": "cell-based, human", "conditions": "48 h, 20 μg/ml trastuzumab, 1 μM gefitinib, 20 μM U0126 or 20 μM LY294002", "experimental": "as §1, §2"}, "[4]": {"test_system": "ERRα1-mediated constitutive activation of ERE-regulated transcription in BT-474 cells", "experiment": "Transient transfection dual-luciferase assay of ERRα1-mediated ERE-regulated transcription in BT-474 cells", "type": "cell-based, human", "experimental": "as §1"}, "[5]": {"target": "T1, GST-ERRα1 1-173 (truncated GST-ERRα1 fusion protein) (UniProt P11474)", "T1 sequence": "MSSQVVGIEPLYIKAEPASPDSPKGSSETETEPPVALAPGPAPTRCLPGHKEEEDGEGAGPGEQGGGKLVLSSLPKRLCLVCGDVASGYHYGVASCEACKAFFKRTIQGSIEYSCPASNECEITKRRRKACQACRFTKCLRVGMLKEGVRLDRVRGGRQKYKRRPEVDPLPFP"}, "[6]": {"target": "T2, GST-ERRα1 1-376 (truncated GST-ERRα1 fusion protein) (UniProt P11474)", "T2 sequence": "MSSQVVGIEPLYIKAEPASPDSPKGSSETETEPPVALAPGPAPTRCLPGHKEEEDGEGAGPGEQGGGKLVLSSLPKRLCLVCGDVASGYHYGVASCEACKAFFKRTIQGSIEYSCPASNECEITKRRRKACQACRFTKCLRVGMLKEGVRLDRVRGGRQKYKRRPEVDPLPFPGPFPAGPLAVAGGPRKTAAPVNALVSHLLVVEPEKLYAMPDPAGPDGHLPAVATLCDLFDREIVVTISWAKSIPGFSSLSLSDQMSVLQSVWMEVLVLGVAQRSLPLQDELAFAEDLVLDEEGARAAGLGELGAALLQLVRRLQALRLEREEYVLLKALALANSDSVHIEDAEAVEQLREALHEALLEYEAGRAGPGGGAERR"}, "[7]": {"target": "T3, GST-ERRα1 1-423 (full-length GST-ERRα1 fusion protein) (UniProt P11474)", "T3 sequence": "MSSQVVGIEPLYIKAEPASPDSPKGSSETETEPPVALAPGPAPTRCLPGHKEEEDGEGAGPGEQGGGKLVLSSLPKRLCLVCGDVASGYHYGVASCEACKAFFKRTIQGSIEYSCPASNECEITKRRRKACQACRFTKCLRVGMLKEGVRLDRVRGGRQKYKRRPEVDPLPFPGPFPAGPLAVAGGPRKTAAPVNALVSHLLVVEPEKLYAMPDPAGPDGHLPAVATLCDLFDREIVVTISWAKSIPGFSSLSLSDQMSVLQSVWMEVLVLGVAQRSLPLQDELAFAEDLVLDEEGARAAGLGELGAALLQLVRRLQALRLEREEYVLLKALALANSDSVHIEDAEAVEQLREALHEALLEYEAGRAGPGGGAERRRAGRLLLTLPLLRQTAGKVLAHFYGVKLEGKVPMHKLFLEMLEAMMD"}, "[8]": {"test_system": "GST-β-globin 1-123 fusion protein [GST: P08515]", "sequence (P08515 whole entry, looked up, the tested form may be a part)": "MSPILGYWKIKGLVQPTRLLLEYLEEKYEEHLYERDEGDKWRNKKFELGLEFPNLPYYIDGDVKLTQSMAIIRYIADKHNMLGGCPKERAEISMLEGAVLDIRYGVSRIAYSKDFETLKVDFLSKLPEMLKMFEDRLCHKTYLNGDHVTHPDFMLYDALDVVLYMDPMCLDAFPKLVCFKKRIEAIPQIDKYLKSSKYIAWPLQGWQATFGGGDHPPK"}, "[9]": {"test_system": "PHAS-1 (phosphorylated heat and acid-stable protein regulated by insulin)"}, "[10]": {"target": "Human ERRα1 containing a C-terminal 6×His tag, expressed and purified from E. coli, P11474"}},
  "data": [
    {"molecule": "C[C@]12CC[C@@H]3c4ccc(O)cc4CC[C@H]3[C@@H]1CC[C@@H]2O", "note": "[E2, 17β-estradiol]", "values": [
      {"measurement": "induction of ERE-regulated transcription", "setting": "[1]", "result": 19, "unit": "fold"}
    ]},
    {"molecule": "O=c1cc(N2CCOCC2)oc2c(-c3ccccc3)cccc12", "note": "[LY294002, 2-(4-morpholinyl)-8-phenyl-4H-1-benzopyran-4-one]", "values": [
      {"measurement": "ERRα expression (immunoblot)", "setting": "ERRα", "result": "still expressed"},
      {"measurement": "phosphorylation of MAPK / MEK/MAPK pathway activation (immunoblot)", "setting": "[2]", "result": "without affecting MAPK status"},
      {"measurement": "phosphorylation of Akt / PI3K/Akt pathway activation (immunoblot)", "setting": "[3]", "result": "inhibition of phosphorylation of Akt"}
    ]},
    {"molecule": "N#CC(=C(/N)Sc1ccccc1N)/C(C#N)=C(\\N)Sc1ccccc1N", "note": "[U0126]", "values": [
      {"measurement": "reduction in ERRα1's activator activity", "setting": "[4]", "result": "approximately 50%"},
      {"measurement": "ERRα expression (immunoblot)", "setting": "ERRα", "result": "still expressed"},
      {"measurement": "phosphorylation of MAPK / MEK/MAPK pathway activation (immunoblot)", "setting": "[2]", "result": "inhibition of phosphorylation of MAPK"},
      {"measurement": "phosphorylation of Akt / PI3K/Akt pathway activation (immunoblot)", "setting": "[3]", "result": "without affecting Akt status"}
    ]},
    {"molecule": "rat p42 MAPK2 (ERK2; Calbiochem) phosphorylated in vitro by a constitutively active MEK1 mutant", "values": [
      {"measurement": "in vitro phosphorylation with [γ32P]-ATP, 12% SDS-PAGE and PhosphorImager", "setting": "[5]", "result": "MAPK phosphorylated each of the GST-ERRα1 fusion proteins, with more label being incorporated into GST-ERRα11-423 than into GST-ERRα11-376 and GST-ERRα11-173"},
      {"measurement": "in vitro phosphorylation with [γ32P]-ATP, 12% SDS-PAGE and PhosphorImager", "setting": "[6]", "result": "MAPK phosphorylated each of the GST-ERRα1 fusion proteins, with more label being incorporated into GST-ERRα11-423 than into GST-ERRα11-376 and GST-ERRα11-173"},
      {"measurement": "in vitro phosphorylation with [γ32P]-ATP, 12% SDS-PAGE and PhosphorImager", "setting": "[7]", "result": "MAPK phosphorylated each of the GST-ERRα1 fusion proteins, with more label being incorporated into GST-ERRα11-423 than into GST-ERRα11-376 and GST-ERRα11-173"},
      {"measurement": "in vitro phosphorylation with [γ32P]-ATP, 12% SDS-PAGE and PhosphorImager", "setting": "[8]", "result": "activated MAPK efficiently phosphorylated PHAS-1, but not GST-β-globin1-123"},
      {"measurement": "in vitro phosphorylation with [γ32P]-ATP, 12% SDS-PAGE and PhosphorImager", "setting": "[9]", "result": "activated MAPK efficiently phosphorylated PHAS-1, but not GST-β-globin1-123"}
    ]},
    {"molecule": "Human MAPK1 containing an N-terminal GST tag, activated with MEK1 (protein) MAAAAAQGGGGGEPRRTEGVGPGVPGEVEMVKGQPFDVGPRYTQLQYIGEGAYGMVSSAYDHVRKTRVAIKKISPFEHQTYCQRTLREIQILLRFRHENVIGIRDILRASTLEAMRDVYIVQDLMETDLYKLLKSQQLSNDHICYFLYQILRGLKYIHSANVLHRDLKPSNLLINTTCDLKICDFGLARIADPEHDHTGFLTEYVATRWYRAPEIMLNSKGYTKSIDIWSVGCILAEMLSNRPIFPGKHYLDQLNHILGILGSPSQEDLNCIINMKARNYLQSLPSKTKVAWAKLFPKSDSKALDLLDRMLTFNPNKRITVEEALAHPYLEQYYDPTDEPVAEEPFTFAMELDDLPKERLKELIFQETARFQPGVLEAP", "values": [
      {"measurement": "in vitro phosphorylation with [γ-32P]-ATP, SDS-(4-12%) PAGE and autoradiography", "setting": "[10]", "result": "Each of the kinases tested was capable of phosphorylating ERRα in vitro"}
    ]},
    {"molecule": "Human Akt2 containing an N-terminal 6×His tag, lacking amino acids 1-117 (Pleckstrin Homology domain), serine 474 mutated to aspartic acid (protein) HHHHHHDPMDYKCGSPSDSSTTEEMEVAVSKARAKVTMNDFDYLKLLGKGTFGKVILVREKATGRYYAMKILRKEVIIAKDEVAHTVTESRVLQNTRHPFLTALKYAFQTHDRLCFVMEYANGGELFFHLSRERVFTEERARFYGAEIVSALEYLHSRDVVYRDIKLENLMLDKDGHIKITDFGLCKEGISDGATMKTFCGTPEYLAPEVLEDNDYGRAVDWWGLGVVMYEMMCGRLPFYNQDHERLFELILMEEIRFPRTLSPEAKSLLAGLLKKDPKQRLGGGPSDAKEVMEHRFFLSINWQDVVQKKLLPPFKPQVTSEVDTRYFDDEFTAQSITITPPDRYDSLGLLELDQRTHFPQFDYSASIRE", "values": [
      {"measurement": "in vitro phosphorylation with [γ-32P]-ATP, SDS-(4-12%) PAGE and autoradiography", "setting": "[10]", "result": "Each of the kinases tested was capable of phosphorylating ERRα in vitro"}
    ]},
    {"molecule": "Human Akt1 containing an N-terminal 6×His tag, lacking amino acids 1-117 (Pleckstrin Homology domain), serine 473 mutated to aspartic acid (protein) HHHHHHMDFRSGSPSDNSGAEEMEVSLAKPKHRVTMNEFEYLKLLGKGTFGKVILVKEKATGRYYAMKILKKEVIVAKDEVAHTLTENRVLQNSRHPFLTALKYSFQTHDRLCFVMEYANGGELFFHLSRERVFSEDRARFYGAEIVSALDYLHSEKNVVYRDLKLENLMLDKDGHIKITDFGLCKEGIKDGATMKTFCGTPEYLAPEVLEDNDYGRAVDWWGLGVVMYEMMCGRLPFYNQDHEKLFELILMEEIRFPRTLGPEAKSLLSGLLKKDPKQRLGGGSEDAKEIMQHRFFAGIVWQHVYEKKLSPPFKPQVTSETDTRYFDEEFTAQMITITPPDQDDSMECVDSERRPHFPQFDYSASGTA", "values": [
      {"measurement": "in vitro phosphorylation with [γ-32P]-ATP, SDS-(4-12%) PAGE and autoradiography", "setting": "[10]", "result": "Each of the kinases tested was capable of phosphorylating ERRα in vitro"}
    ]}
  ]
}
